Tests used:
[1] = rats, oral administration; cited from earlier work
serotonin-induced edema = assay: Serotonin-induced paw edema (acute inflammation); assay type: in vivo, rats (Sprague Dawley); settings: oral; for Inflammation inhibition index: 2 h before serotonin, 30 min after serotonin, n = 8
Procedure: Anti-inflammatory activity of MEI-based pharmaceutical compositions compared to MEI substance (as a suspension in starch solution) and indomethacin after oral administration was studied in a model of acute inflammation-paw edema induced by inflammation mediator serotonin. Rats of Sprague Dawley stock were used. […] Test compounds were administered orally 2 hours before the serotonin administration. […] Inflammation severity was measured by plethyosmography as the difference between the masses of control and test paws, expressed in ml. Anti-inflammatory activity of the test compounds was assessed by the inhibition index, calculated using the following formula: II=(([…])×100%, where II-inflammation inhibition index in %; Set-severity of inflammation in the control group, ml; St-severity of inflammation in the test group, ml.

[2] = Pharmacokinetics: indomethacin in blood plasma after oral administration; assay type: in vivo, rats (Sprague Dawley); settings: 25 mg/kg
Procedure: Pharmacokinetic properties of two MEI-based compositions were studied: composition 1 (liposome-encapsulated MEI), produced as described in example 1, and composition 3 (MEI solution), produced as described in example 3. MEI substance (as a suspension in starch solution) and indomethacin were used as reference drugs. Rats of Sprague Dawley stock were used. All test compounds were administered orally to rats in 25 mg/kg dose. Animal blood was sampled at certain time points (0; 0.25; 0.5; 1, 2, 4, 8, 16 and 24 hours) for analysis. Indomethacin content in animal blood plasma was determined using high-performance liquid chromatography (HPLC) method.

[3] = system: adjuvant-induced rheumatoid arthritis; assay: Adjuvant-induced rheumatoid arthritis, inflammation severity by plethysmography; assay type: in vivo
Procedure: (§1) Anti-inflammatory and analgesic activity of MEI-based pharmaceutical composition after oral administration was studied in a model of chronic inflammation—adjuvant-induced rheumatoid arthritis in rats. To induce arthritis the rats were administered 100 mcl of complete Freund adjuvant (CFA), supplied by Sigma Aldrich, into the plantar surface of right hind paw. The control (intact) group 1 has received 100 mcl of saline. After CFA injection, local inflammation develops in a few hours, with subsequent pathologic changes in metacarpophalangeal joints and distal interphalangeal joints. Test compound (composition 3—MEI solution) and the reference drug (indomethacin) were administered once daily orally for 22 days, starting from 7th day after pathology induction. Test compound was administered in 6.25, 12.5 and 25 mg/kg doses. […] To assess the anti-inflammatory action of MEI in animals by pelthysmography, inflammation severity was measured as the difference between the masses of control and test paws, expressed in ml. Analgesic activity of MEI in animals was assessed by tactile reactivity threshold using the method of Chaplan et al. using the kit of 8 standard von Frey hairs (Stoelting, USA).

gastric mucosa = assay: Ulcerogenic action on gastric mucosa after fourfold oral administration; assay type: in vivo, rats; settings: for Average score (ulcerogenic action) / Average number of erosions / Average number of ulcers: 4 times orally; for Average score (ulcerogenic action): scale 0 (no damage) to 4 (gross damage); for Average number of erosions / Average number of ulcers: stomach 3 h after last administration
Procedure: Ulcerogenic action was measured using the following 4-point scale: 0—no damage; 0.5—slight hyperemia of gastric mucosa; 1—weak localized damage of gastric mucosa (single point bleeding, severe hyperemia); 2—weak distributed damage of gastric mucosa (small ulcers, erosions, multiple bleeding); 3—severe and distributed damage of gastric mucosa (erosions, ulcers, bleeding); 4—gross damage of the whole stomach (massive bleeding, erosion, ulcers, perforation).

yeast-induced fever = assay: Yeast-induced fever (antipyretic activity); assay type: in vivo, rats (Sprague Dawley); settings: n = 6
Procedure: Antipyretic activity of MEI-based pharmaceutical composition was studied in a model of yeast-induced fever in rats. Rats of Sprague Dawley stock were used. Fever was induced in rats by subcutaneous administration of baker's yeast suspension in 2000 mg/kg dose (calculated for dry yeast basis) in 2 ml volume into the animal withers 18 hours before test compound administration. Animal body temperature was measured using an electronic rectal thermometer (MLT1403 Rectal Temperature Probe and PowerLab 4/35 4-channel registration system module, ADlnstruments PtyLtd, Australia). Temperature was measured before yeast administration and 18 h after yeast administration. Afterwards the animals were administered the test compound, MEI-based pharmaceutical composition (composition 3—MEI solution, produced as described in Example 3) in 25, 50 and 100 mg/kg doses. Indomethacin in 10 mg/kg dose was used as a reference drug. Animals in control group have received the vehicle. Temperature was measured 2 and 4 hours after test compound administration.

[4] = system: adjuvant-induced rheumatoid arthritis; assay: Adjuvant-induced rheumatoid arthritis, tactile reactivity threshold (von Frey hairs); assay type: in vivo, rats
Procedure: as §1

[5] = system: carrageenan-induced edema; assay: Carrageenan-induced edema, intraperitoneal administration; assay type: in vivo, rats (Sprague Dawley); settings: after 4 h
Procedure: Anti-inflammatory activity of MEI-based pharmaceutical composition after parenteral administration was studied in a model of carrageenan-induced edema. Rats of Sprague Dawley stock were used. 50 mcl of saline (“sodium chloride 0.9% solution for infusion”, NPK ESCOM, Russia) was injected intraplantarly into one hind paw (control paw), while 50 mcl of 1% λ-carrageenan solution was injected into another paw.
Inflammation severity was measured after 4 h using a plethysmometer (IITC Life Science, USA). Inflammation severity was measured by plethyosmography as the difference between the masses of control and test paws, expressed in ml. Test compound, pharmaceutical composition […] (MEI solution) was administered parenterally (intraperitoneally) 1 hour before λ-carrageenan administration, animals receiving the same amount of the vehicle were used as control. The animals were deprived of food 24 h before the study, water access was not limited.

[6] = 1 mg/kg oral once daily from day 7, day 21
[7] = 1 mg/kg oral once daily from day 7, day 28
[8] = 1 mg/kg oral once daily, day 7 (before test compound administration)
[9] = composition 3 (MEI solution) 6.25 mg/kg oral once daily from day 7, day 21
[10] = composition 3 (MEI solution) 6.25 mg/kg oral once daily from day 7, day 28
[11] = composition 3 (MEI solution) 6.25 mg/kg oral once daily, day 7 (before test compound administration)
[12] = composition 3 (MEI solution) 12.5 mg/kg oral once daily from day 7, day 21
[13] = composition 3 (MEI solution) 12.5 mg/kg oral once daily from day 7, day 28
[14] = composition 3 (MEI solution) 12.5 mg/kg oral once daily, day 7 (before test compound administration)
[15] = composition 3 (MEI solution) 25 mg/kg oral once daily from day 7, day 21
[16] = composition 3 (MEI solution) 25 mg/kg oral once daily from day 7, day 28
[17] = composition 3 (MEI solution) 25 mg/kg oral once daily, day 7 (before test compound administration)
[18] = MEI-based composition 100 mg/kg
[19] = composition 3 (MEI solution) 25 mg/kg oral
[20] = composition 3 (MEI solution) 50 mg/kg oral
[21] = composition 3 (MEI solution) 100 mg/kg oral

COc1ccc2c(c1)c(CC(=O)O)c(C)n2C(=O)c1ccc(Cl)cc1 [Indomethacin, 1-(4-chlorobenzoyl)-5-methoxy-2-methyl-1H-indole-3-acetic acid]
LD50 [1]: less than 15 mg/kg
Inflammation inhibition index (serotonin-induced edema; 10 mg/kg): 43.5%
Tmax ([2]; Sprague-Dawley, rat blood plasma, read-out: time of reaching the maximal concentration (Tmax) of indomethacin): 4 h
Cmax ([2]; Sprague-Dawley, rat, plasma, indomethacin measured by HPLC, read-out: maximal concentration of indomethacin in rat blood plasma (Cmax)): 65.5 µg/mL
inflammation severity ([3]; 1 mg/kg oral once daily from day 7, day 14): 1.8 ± 0.24 mL
inflammation severity [3, 6]: 1.5 ± 0.18 mL
inflammation severity [3, 7]: 1.4 ± 0.28 mL
inflammation severity [3, 8]: 3.0 ± 0.59 mL
animal mortality ([3]; 5 mg/kg, oral once daily, arthritis model): animal mortality is observed
Average score (ulcerogenic action) (gastric mucosa; 5 mg/kg): 3
Average number of erosions (gastric mucosa; 5 mg/kg): 3.2
Average number of ulcers (gastric mucosa; 5 mg/kg): 8
gastric mucosa findings (gastric mucosa; four 5 mg/kg doses, oral): multiple ulcers and erosions
Average body temperature 2 h after test compound administration (yeast-induced fever; 10 mg/kg): −0.98 °C
Average body temperature 4 h after test compound administration (yeast-induced fever; 10 mg/kg): −0.85 °C
median-effective tactile reactivity threshold in an injected limb [4, 6]: 14.5 ± 3.18 g
median-effective tactile reactivity threshold in an injected limb [4, 7]: 16.0 ± 3.04 g
median-effective tactile reactivity threshold in an injected limb [4, 8]: 9.9 ± 2.34 g

COc1ccc2c(c1)c(CC(=O)OC1CC(C)CCC1C(C)C)c(C)n2C(=O)c1ccc(Cl)cc1 (stereo not shown) [MEI]
anti-inflammatory effect in model of acute inflammation (serotonin-induced edema; 25 mg/kg): doesn't have significant anti-inflammatory effects
Inflammation inhibition index (serotonin-induced edema; 25 mg/kg active agent): 4.3%
indomethacin concentration in blood plasma ([2]; suspension in starch solution, any time point 0-24 h): below the detection limit
inflammation severity ([3]; composition 3 (MEI solution) 6.25 mg/kg oral once daily from day 7, day 14): 2.5 ± 0.76 mL
inflammation severity [3, 9]: 1.8 ± 0.49 mL
inflammation severity [3, 10]: 1.9 ± 0.51 mL
inflammation severity [3, 11]: 2.8 ± 0.54 mL
inflammation severity ([3]; composition 3 (MEI solution) 12.5 mg/kg oral once daily from day 7, day 14): 1.9 ± 0.37 mL
inflammation severity [3, 12]: 2.0 ± 0.40 mL
inflammation severity [3, 13]: 1.1 ± 0.21 mL
inflammation severity [3, 14]: 2.6 ± 0.38 mL
inflammation severity ([3]; composition 3 (MEI solution) 25 mg/kg oral once daily from day 7, day 14): 1.5 ± 0.22 mL
inflammation severity [3, 15]: 0.9 ± 0.07 mL
inflammation severity [3, 16]: 0.8 ± 0.12 mL
inflammation severity [3, 17]: 2.4 ± 0.43 mL
Average score (ulcerogenic action) (gastric mucosa; MEI-based composition 25 mg/kg): 0
Average number of erosions (gastric mucosa; MEI-based composition 25 mg/kg): 0
Average number of ulcers (gastric mucosa; MEI-based composition 25 mg/kg): 0
Average score (ulcerogenic action) (gastric mucosa; MEI-based composition 50 mg/kg): 0
Average number of erosions (gastric mucosa; MEI-based composition 50 mg/kg): 0
Average number of ulcers (gastric mucosa; MEI-based composition 50 mg/kg): 0
Average score (ulcerogenic action) (gastric mucosa; [18]): 0.4
Average number of erosions (gastric mucosa; [18]): 0
Average number of ulcers (gastric mucosa; [18]): 0.8
Average body temperature 2 h after test compound administration (yeast-induced fever; [19]): −0.53 °C
Average body temperature 4 h after test compound administration (yeast-induced fever; [19]): −0.45 °C
Average body temperature 2 h after test compound administration (yeast-induced fever; [20]): −0.93 °C
Average body temperature 4 h after test compound administration (yeast-induced fever; [20]): −0.82 °C
Average body temperature 2 h after test compound administration (yeast-induced fever; [21]): −0.78 °C
Average body temperature 4 h after test compound administration (yeast-induced fever; [21]): −0.68 °C
median-effective tactile reactivity threshold in an injected limb [4, 9]: 10.4 ± 3.09 g
median-effective tactile reactivity threshold in an injected limb [4, 10]: 9.6 ± 2.67 g
median-effective tactile reactivity threshold in an injected limb [4, 11]: 11.7 ± 2.93 g
median-effective tactile reactivity threshold in an injected limb [4, 12]: 13.3 ± 2.55 g
median-effective tactile reactivity threshold in an injected limb [4, 13]: 14.8 ± 2.35 g
median-effective tactile reactivity threshold in an injected limb [4, 14]: 11.8 ± 3.12 g
median-effective tactile reactivity threshold in an injected limb [4, 15]: 16.6 ± 2.64 g
median-effective tactile reactivity threshold in an injected limb [4, 16]: 18.2 ± 2.57 g
median-effective tactile reactivity threshold in an injected limb [4, 17]: 9.8 ± 2.14 g
Edema size ([5]; composition No 4 (MEI solution) 0.1 mg/kg intraperitoneally 1 h before carrageenan): 1.011 ± 0.115 mL
Edema size, % from control ([5]; composition No 4 (MEI solution) 0.1 mg/kg intraperitoneally): 91.2 % from control
Edema size ([5]; composition No 4 (MEI solution) 0.5 mg/kg intraperitoneally 1 h before carrageenan): 0.675 ± 0.065 mL
Edema size, % from control ([5]; composition No 4 (MEI solution) 0.5 mg/kg intraperitoneally): 60.9 % from control
Edema size ([5]; composition No 4 (MEI solution) 1.0 mg/kg intraperitoneally 1 h before carrageenan): 0.552 ± 0.097 mL
Edema size, % from control ([5]; composition No 4 (MEI solution) 1.0 mg/kg intraperitoneally): 45.0 % from control
Edema size ([5]; composition No 4 (MEI solution) 10 mg/kg intraperitoneally 1 h before carrageenan): 0.201 ± 0.176 mL
Edema size, % from control ([5]; composition No 4 (MEI solution) 10 mg/kg intraperitoneally): 18.1 % from control
Edema size ([5]; composition No 4 (MEI solution) 50 mg/kg intraperitoneally 1 h before carrageenan): 0.288 ± 0.152 mL
Edema size, % from control ([5]; composition No 4 (MEI solution) 50 mg/kg intraperitoneally): 26.0 % from control

— patent US20200360341A1, “INDOMETHACIN MENTHYL ESTER-BASED PHARMACEUTICAL COMPOSITIONS AND THEIR USE AS ANTI-INFLAMMATORY AGENTS” (OBSHESTVO S OGRANICHENNOI OTVETSTVENNOSTJU "FORBOS”, priority 2017, published 2020)
